We go through ten molecules from article PMC11445910 (International Journal of Veterinary Science and Medicine, 2024).

≈ marks a conversion by molar mass, not a printed value. Like-named read-outs stand apart in the source and are kept apart here.

One experiment deals with MHV-A59. The note with it: read-out: EC50 against MHV-A59; cited from earlier work.
A further experiment has as its system HCoV-OC43. The note with it: read-out: EC50 against HCoV-OC43; cited from earlier work.
The next experiment relates to HCoV-NL63. Conditions: read-out: EC50 against HCoV-NL63; cited from earlier work.
Another experiment deals with MERS-CoV. Conditions: read-out: EC50 against MERS-CoV; cited from earlier work.
The test system of a further experiment is FMDV serotype A. Conditions: cited from earlier work.
Experiment [1] deals with FMDV serotype A (NP05). Nature of the experiment: microbe, parasite or virus in culture. Type of experiment: cell-based, Foot-and-mouth disease virus.
For experiment [2], the system named is FMDV serotype A (NP05). Nature of the experiment: microbe, parasite or virus in culture. In kind it is cell-based, Foot-and-mouth disease virus. This is another data set of the same source.
The subject of experiment [3] is FMDV serotype A (NP05). Nature of the experiment: microbe, parasite or virus in culture. Type of experiment: cell-based. The note with it: Foot-and-mouth disease virus, BHK-21, read-out: Post-viral entry EC50.
In experiment [4] the test system is papain-like protease 2 protein. Conditions: read-out: IC50 (papain-like protease 2 protein inhibition); cited from earlier work.
The test system of another experiment is HBV. Conditions: read-out: IC50 against HBV; cited from earlier work.
Another experiment concerns Influenza virus type A. Conditions: cited from earlier work.
In a further experiment the test system is RSV. The note with it: cited from earlier work.
The subject of the next experiment is Influenza virus H1N1. Conditions: cited from earlier work.
In the next experiment the target is RdRp. The note with it: read-out: Binding affinity (RdRp inhibition using surface plasmon resonance assay); cited from earlier work.
In the next experiment the test system is FMDV 3Dpol. In kind it is cell-based, Foot-and-mouth disease virus.
Experiment [5] concerns FMDV serotype A (NP05). Type of experiment: cell-based, Foot-and-mouth disease virus.
Experiment [6] concerns FMDV serotype A (NP05). Type of experiment: cell-based, Foot-and-mouth disease virus. This is another data set of the same source.
Another experiment concerns SARS-CoV-2. Conditions: read-out: EC50 against SARS-CoV-2; cited from earlier work.
In experiment [7] the test system is FMDV serotype A (NP05). In kind it is cell-based, Foot-and-mouth disease virus. The source holds these as a separate data set.
In experiment [8] the test system is FMDV serotype A (NP05). Nature of the experiment: microbe, parasite or virus in culture. In kind it is cell-based. The note with it: Foot-and-mouth disease virus, BHK-21, read-out: Prophylactic EC50.
The subject of another experiment is CHIKV. The note with it: read-out: EC50 against CHIKV; cited from earlier work.
In a further experiment the test system is EBOV. The note with it: read-out: IC50 (viral-like particle entry); cited from earlier work.
Another experiment concerns enterovirus (EV) A71. Conditions: read-out: EC50 against enterovirus (EV) A71; cited from earlier work.
The next experiment deals with ZIKV NS5 RNA polymerase. Conditions: read-out: IC50 (NS5 polymerase inhibition); cited from earlier work.
The test system of experiment [9] is HIV reverse transcriptase. The note with it: cited from earlier work.
[10] abbreviates: Foot-and-mouth disease virus, BHK-21, read-out: Pre-viral entry EC50.
Setting [11] is: Foot-and-mouth disease virus, BHK-21, read-out: Penetration EC50.

Regarding `C[C@H]1[C@H]2CC[C@H]3[C@@H]4CC=C5C[C@@H](N(C)C)CC[C@]5(C)[C@H]4CC[C@]23CN1C` [Conessine (CNS), Conessine], the EC50 in the experiment on MHV-A59 was 11500 nM; in the experiment on HCoV-OC43 it was 2340 nM; with HCoV-NL63, 10700 nM; in the experiment with MERS-CoV, 4980 nM.

In general, IC50 refers to the concentration needed to halve the response being measured. For `NC(=O)c1ncc[nH]c1=O` [T-1105], the “IC50 against FMDV serotype A” value in the experiment on FMDV serotype A was 1.11 µg/mL (≈ 7.98 µM). Moreover, the IC50 in the experiment with FMDV serotype A (read-out: IC50 against FMDV serotype A) is 7970 nM.

For `CCOC(=O)/C=C/[C@H](C[C@@H]1CCNC1=O)NC(=O)[C@@H](CC(=O)[C@@H](NC(=O)c1cc(C)on1)C(C)C)Cc1ccc(F)cc1` [RPV, Rupintrivir], the EC50 was 10400 ± 1020 nM in the experiment on FMDV serotype A (NP05) [1] (read-out: Pre-viral entry EC50), 2060 ± 310 nM with FMDV serotype A (NP05) [2] (read-out: Penetration EC50) and 3430 ± 540 nM in the experiment on FMDV serotype A (NP05) [3].

As for `O=C1c2ccccc2-n2c1nc1ccccc1c2=O` [Tryptanthrin (TTT), Tryptanthrin], the IC50 in experiment [4] is 60 nM.

In the case of `C[C@@H]1CC[C@@]2(NC1)O[C@H]1C[C@H]3[C@@H]4CC=C5C[C@@H](O[C@@H]6O[C@H](CO)[C@@H](O[C@@H]7O[C@@H](C)[C@H](O)[C@@H](O)[C@H]7O)[C@H](O)[C@H]6O[C@@H]6O[C@@H](C)[C@H](O)[C@@H](O)[C@H]6O)CC[C@]5(C)[C@H]4CC[C@]3(C)[C@H]1[C@@H]2C` [Solamargine (SLG), Solamargine], in the experiment on HBV, the IC50 is 2170 nM.

Take Strictosamide [Strictosamide (STM)]: the “IC50 against influenza virus type A” value with Influenza virus type A was “IC50 of 25.68 µg/ml in MDCK cells IC50 of 12.50 µg/ml in Hep-2 cells”. For the same molecule, the “IC50 against RSV” value with RSV is “IC50 of 25.68 µg/ml in MDCK cells IC50 of 12.50 µg/ml in Hep-2 cells”.

For the molecule `C/C=C1/CN2[C@@H]3C[C@@]45c6ccccc6N[C@]4(O3)[C@@H]2C[C@@H]1[C@H]5C(=O)OC` [Picrinine (PCN), Picrinine], the “Reduction of haemagglutination titres” value in the experiment with Influenza virus H1N1 is “Reduction of haemagglutination titres at 1/480; 12.5 mg/kg of Alstonia scholaris (L.) crude extract”.

On to `CC[C@H]1CN2CCc3cc(OC)c(OC)cc3[C@@H]2C[C@@H]1C[C@H]1NCCc2cc(O)c(OC)cc21` [CPL, Cephaeline], for which the EC50 in the experiment on FMDV serotype A (NP05) [1] (setting [10]) was 100 ± 100 nM; in the experiment with FMDV serotype A (NP05) [2] (setting [11]), 50 nM; with SARS-CoV-2, 12.3 nM; in the experiment with FMDV serotype A (NP05) [3], 50 ± 130 nM; in the experiment with FMDV serotype A (NP05) [8], 230 ± 650 nM. The Kd on RdRp is 8900 nM. Moreover, in the experiment with FMDV 3Dpol, the “Negative-stranded RNA production” value is “affected the production of negative-stranded RNA”. Also, in the experiment on FMDV serotype A (NP05) [5], the “Viral load reduction (viral copy numbers)” value was “dose-dependent manner”. The “Effect on viral attachment (binding of FMDV)” value in the experiment with FMDV serotype A (NP05) [6] was “neither CPL nor EMT impeded the binding of FMDV”. Also, the “% Virucidal effect (Virus titre reduction of log TCID50/ml), High dose” value in the experiment with FMDV serotype A (NP05) [7] came to 79.59%. Moreover, the “% Virucidal effect (Virus titre reduction of log TCID50/ml), Low dose” value with FMDV serotype A (NP05) [7] stood at 68.35%. For the same molecule, the “log viral titre after treatment, high dose” value in the experiment on FMDV serotype A (NP05) [7] was 1.00. The “log viral titre after treatment, low dose” value in the experiment on FMDV serotype A (NP05) [7] is 1.00.

Consider `C[C@H]1CC[C@]2(NC1)O[C@H]1C[C@H]3[C@@H]4CC[C@H]5C[C@@H](O)CC[C@]5(C)[C@H]4CC[C@]3(C)[C@H]1[C@@H]2C` [Tomatidine (TMD), Tomatidine], for which, in the experiment on CHIKV, the EC50 is 1300 nM.

For `CC[C@H]1CN2CCc3cc(OC)c(OC)cc3[C@@H]2C[C@@H]1C[C@H]1NCCc2cc(OC)c(OC)cc21` [EMT, Emetine, reference compound], the EC50 is 120 nM in the experiment with MHV-A59; 130 nM with FMDV serotype A (NP05) [1] (setting [10]); 40 nM with enterovirus (EV) A71; 120 nM in the experiment with FMDV serotype A (NP05) [2] (setting [11]); 300 nM with HCoV-OC43; 1430 nM in the experiment with HCoV-NL63. Further, the EC50 in the experiment with MERS-CoV was 340 nM; in the experiment on SARS-CoV-2, 7.71 nM; in the experiment with FMDV serotype A (NP05) [3], 240 ± 630 nM; in the experiment with FMDV serotype A (NP05) [8], 640 ± 200 nM. The IC50 in the experiment with EBOV is 10200 nM; at ZIKV NS5 RNA polymerase, 121 nM. For the same molecule, the “Negative-stranded RNA production” value in the experiment on FMDV 3Dpol is given as “affected the production of negative-stranded RNA”. Besides, the “Viral load reduction (viral copy numbers)” value with FMDV serotype A (NP05) [5] is recorded as “dose-dependent manner”. Besides, the “Effect on viral attachment (binding of FMDV)” value in the experiment on FMDV serotype A (NP05) [6] was “neither CPL nor EMT impeded the binding of FMDV”. Moreover, the “% Virucidal effect (Virus titre reduction of log TCID50/ml), Low dose” value in the experiment with FMDV serotype A (NP05) [7] came to 32.28%. In the experiment with FMDV serotype A (NP05) [7], the “log viral titre after treatment, high dose” value amounted to 2.16. Further, the “log viral titre after treatment, low dose” value with FMDV serotype A (NP05) [7] came to 2.14. In addition, the “Reduction of HIV reverse transcriptase activity” value in [9] is “approximately 50%”.
